Patent publication US20090105149A1, “Compounds comprising lpa” (ENKAM PHARMACEUTICALS A/S, priority 2003, published 2009)
Marks after values point to notes of the source that are not given here.

Columns and labels:
Format in all cases: cell-based, rat
[1] = test system: dissociated hippocampal neurons; assay: OGD, FM 1-43 release in dissociated hippocampal cell cultures
Excerpt: (§1) In the present study it was investigated the effect of the FGL peptide on synaptic plasticity, neuronal function and vulnerability following oxygen and glucose deprivation (OGD) in organotypic hippocampal neuronal slice cultures (OHSC) from 7-day-old Wistar rats according to method of Stoppini et al. (1991) Neurosci Methods. 37:173-82 and primary cultures of dissociated hippocampal neurons from 1-day-old rats according to method of Maar et al. (1997) J Neurosci Res. 47:163-72. Primary cell cultures were maintained for 11-12 days and OHSC for 12-14 days prior to adding FGLd.
(§2) The primary cell cultures and OHSC were exposed to OGD for 10 and 20 minutes. Following OGD, the cultures were again supplied with oxygen and glucose and analysed at 1, 4 or 24 hour time point after introduction of OGD exposure. FGLd (or the control peptide FGLc) was added 24 hr before, immediately, or 1 hr or 24 hr after OGD. When administered prior to OGD, FGLd was removed from the medium when introducing OGD. In some cases, the slice cultures were treated with FGLd only at 4 hr after OGD. In addition, the FGFR inhibitor, SU5402 (25 μM), was added together with FGLd in some of the set-ups.
(§3) In hippocampal neuronal cultures, FM 1-43 staining was used to evaluate pre-synaptic function (described above). Cell viability in both primary cell cultures and OHSC was measured using the […] [3-(4,5-dimethylthiazol-2-yl)-2,5-diphenyltetrazolium bromide] assay according to Malich et al, (1997) Toxicology. 124:179-92. In, addition, cell viability in OHSC was measured using propidium iodide (PI) staining according to Laake et al. (1999) Brain Res Brain Res Protoc. 4:173-84.

[2] = test system: dissociated hippocampal neurons; assay: OGD, metabolic activity (MTS) in dissociated hippocampal cell cultures
Excerpt: as §1, §2, §3

[3] = test system: cerebellar granule neurons (CGN); assay: Neurite outgrowth, cerebellar granule neurons; conditions: 24 h
Procedure: (§4) The cultures were subsequently immunostained for tyrosine hydroxylase. Hippocampal neurons and CGN were plated at a density of 10,000 cells/cm^2 on 8-well permanox chamber slides and incubated for 24 hours in the presence of various concentrations of FGLd. Subsequently the neurons were immunostained for GAP-43. Results from at least five independent experiments for each neuronal culture are shown as percentage ±SEM with the untreated controls set at 100%. *p<0.05, **p<0.01, ***p<0.001 when compared to the controls.
(§5) Peptide solutions without or with inhibitors of various signal transduction pathways were added to a total volume of 300 μl/cm^2, and the slides were incubated at 37° C. After 24 hours, the neurons were fixed with 4% (v/v) formaldehyde for 20 minutes and thereafter immunostained using primary rabbit antibodies against GAP-43 and Alexa Fluor secondary goat anti-rabbit antibodies. Images of at least 200 neurons for each group in each individual experiment were obtained systematically by using computer assisted fluorescence microscopy as previously described (Rønn et al., 2000 op. cit.). Briefly, a Nikon Diaphot inverted microscope with a Nikon Plan 20× objective (Nikon, Tokyo, Japan) coupled to a video camera (Grundig Electronics, Germany) was used for recordings. The same software package as described above for the dopaminergic neurite outgrowth assay was used to process the recorded images.

dopaminergic neurons = assay: Neurite outgrowth, dopaminergic neurons; conditions: 72 h; for Effect on Neurite Length (Percent Increase vs. Control): DN E14
Procedure: as §4
After 72 hours of incubation, the neurons were fixed with 4% (v/v) formaldehyde and immunostained using a primary mouse monoclonal antibody against tyrosine hydroxylase and secondary biotinylated sheep anti-mouse antibodies followed by incubation with peroxidase conjugated streptavidin. 98 images for each experimental condition in each individual experiment were automatically recorded using a computerised microscope workstation described by Walmod et al. (2002) Toxicol Appl Pharmacol. 181:1-15. Briefly, the workstation consisted of an Eclipse TE 300 inverted microscope (Nikon, Tokyo, Japan) equipped with a motorised, movable microscope stage (LUDL Electronic Production Ltd, Hawthorne, N.Y., USA), a 10× objective and a 1100 analogue b/w CCD video camera (DFA, Denmark). A software package Prima developed at the Protein Laboratory (Copenhagen University, Denmark) was used to make a stereologically based determination of neurite length according to Rønn et al., (2000) J Neurosci Methods. 100:25-32).

hippocampal neurons = assay: Neurite outgrowth, hippocampal neurons; conditions: 24 h
Procedure: as §4
Results from at least four independent experiments are shown as percentage SEM with untreated controls set at 100%. **p<0.01 when compared to the controls.
as §5

[4] = treated 24 hours before or immediately after OGD

With “FGLd: MAP-type dendrimer of FGL; dendrimeric tetramer of the FGL peptide (EVYVVAENQQGKSKA)” the “rate of FM 1-43 release after OGD” value [1, 4] was “the OGD-induced decrease in the rate of FM 1-43 release was diminished”, the “rate of pre-synaptic vesicle release (FM 1-43 destaining) upon high potassium stimulation” value ([1]; treatment without OGD, control 0.04) was 0.06 s⁻¹ and the “metabolic activity (MTS), treatment alone” value ([2]; no OGD) was “led to an increase in metabolic activity”. For the same substance, the “metabolic activity (MTS) after 20 min OGD” value [2, 4] was “the effect of OGD on metabolic activity was diminished”, the “Effect on Neurite Length (Percent Increase vs. Control)” value ([3]; CGN PND 2-4, 9 μg/mL) was 24%** and the “Effect on Neurite Length (Percent Increase vs. Control)” value ([3]; CGN PND 5-8, 3 μg/mL) was 30%. For the same substance, the “Effect on Neurite Length (Percent Increase vs. Control)” value ([3]; CGN PND 5-8, 9 μg/mL) was 93%, the “Effect on Neurite Length (Percent Increase vs. Control)” value ([3]; CGN PND 5-8, 10 μg/mL) was 37% and the “Effect on Neurite Length (Percent Increase vs. Control)” value ([3]; CGN PND 5-8, 25 μg/mL) was 79%. The “Effect on Neurite Length (Percent Increase vs. Control)” value ([3]; CGN PND 5-8, 27 μg/mL) was 121%, the “Effect on Neurite Length (Percent Increase vs. Control)” value ([3]; CGN PND 5-8, 50 μg/mL) was 179% and the “Effect on Neurite Length (Percent Increase vs. Control)” value ([3]; CGN PND 5-8, 100 μg/mL) was 96%. The “maximal stimulation of neurite outgrowth, CGN” value ([3]; at 50 μg/ml, untreated control = 100%) was 255%, the “Effect on Neurite Length (Percent Increase vs. Control)” value (dopaminergic neurons; 0.04 μg/mL) was 12% and the “Effect on Neurite Length (Percent Increase vs. Control)” value (dopaminergic neurons; 0.2 μg/mL) was 23%. The “Effect on Neurite Length (Percent Increase vs. Control)” value (dopaminergic neurons; 1 μg/mL) was 24%, the “Effect on Neurite Length (Percent Increase vs. Control)” value (dopaminergic neurons; 5 μg/mL) was 13% and the “maximal average neurite length, dopaminergic neurons” value (dopaminergic neurons; at 1 μg/ml, untreated control = 100%) was 125%. The “neurite length, hippocampal neurons, plateau-like level” value (hippocampal neurons; 0.04 up to 20 μg/ml, untreated control = 100%) was “approximately 150%”, the “Effect on Neurite Length (Percent Increase vs. Control)” value (hippocampal neurons; HN E19, 3 μg/mL) was 65% and the “Effect on Neurite Length (Percent Increase vs. Control)” value (hippocampal neurons; HN E19, 9 μg/mL) was 51%. For the same substance, the “Effect on Neurite Length (Percent Increase vs. Control)” value (hippocampal neurons; HN E19, 27 μg/mL) was 69%, the “Effect on Neurite Length (Percent Increase vs. Control)” value (hippocampal neurons; HN Newborn, 0.04 μg/mL) was 38% and the “Effect on Neurite Length (Percent Increase vs. Control)” value (hippocampal neurons; HN Newborn, 5 μg/mL) was 45%.
